Source: ChEMBL document CHEMBL1124680, “Cyclic enkephalin analogues containing alpha-amino-beta-mercapto-beta,beta-pentamethylenepropionic acid at positions 2 or 5” (J Med Chem, 1989)

How the values were obtained:
[1] = target: Kappa-type opioid receptor (Rattus norvegicus, UniProt P34975); test: The compound was tested for the ability to displace opioid receptor kappa specific radioligand [3H]DADLE
Cavia porcellus = species on record: Cavia porcellus; test: The compound was tested In vitro for the ability to inhibit electrically induced contractions of the guinea pig ileum; format: functional
Mus musculus = species on record: Mus musculus; test: The compound was tested In vitro for the ability to inhibit electrically induced contractions of the mouse vas deferens; format: functional
[2] = target: T1, Delta-type opioid receptor (Rattus norvegicus, UniProt P33533); test: The compound was tested for the ability to displace opioid receptor delta specific radioligand [3H]-DSLET
T1 sequence (P33533 whole entry): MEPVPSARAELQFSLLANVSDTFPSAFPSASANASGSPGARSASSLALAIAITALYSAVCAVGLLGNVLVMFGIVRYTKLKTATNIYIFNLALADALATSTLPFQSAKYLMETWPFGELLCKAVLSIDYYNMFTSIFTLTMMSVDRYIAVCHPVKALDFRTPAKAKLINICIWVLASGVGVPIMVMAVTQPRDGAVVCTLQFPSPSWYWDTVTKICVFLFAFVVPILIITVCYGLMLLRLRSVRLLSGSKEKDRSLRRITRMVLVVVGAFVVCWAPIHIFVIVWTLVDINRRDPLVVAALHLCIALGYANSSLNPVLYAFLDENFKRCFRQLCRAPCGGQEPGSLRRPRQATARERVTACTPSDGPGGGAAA

Mu-type opioid receptor [3] = target: T2, Mu-type opioid receptor (Rattus norvegicus, UniProt P33535); test: The compound was tested for the ability to displace mu-receptor specific radioligand [3H]DAGO
T2 sequence (P33535 whole entry): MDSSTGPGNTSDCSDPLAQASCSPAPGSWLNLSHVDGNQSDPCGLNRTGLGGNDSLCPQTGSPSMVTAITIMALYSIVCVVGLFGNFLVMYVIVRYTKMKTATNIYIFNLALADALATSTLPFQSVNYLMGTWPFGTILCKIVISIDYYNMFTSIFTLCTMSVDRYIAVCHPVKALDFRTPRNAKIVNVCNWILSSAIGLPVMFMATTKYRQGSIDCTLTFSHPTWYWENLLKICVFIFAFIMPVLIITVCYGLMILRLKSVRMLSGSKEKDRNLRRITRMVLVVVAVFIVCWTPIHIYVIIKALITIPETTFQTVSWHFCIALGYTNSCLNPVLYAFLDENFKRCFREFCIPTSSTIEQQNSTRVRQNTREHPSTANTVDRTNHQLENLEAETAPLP

[4] = target: T1, Delta-type opioid receptor; test: The compound was tested for the ability to displace receptor specific radioligand [3H]DPDPE
[5] = (§1) Ratio of inhibition of electrically induced contractions in GPI and MVD; format: functional
[6] = target: T1, Delta-type opioid receptor; test: The compound was tested for the ability to displace delta-receptor specific radioligand [3H]DSLET
Mu-type opioid receptor [7] = target: T2, Mu-type opioid receptor; test: The compound was tested for the ability to displace Opioid receptor mu 1 specific radioligand [3H]DAGO
[8] = target: T1, Delta-type opioid receptor; test: The compound was tested for the ability to displace delta-receptor specific radioligand [3H]DPDPE
[9] = as §1

CC1(C)SSC[C@H](C(=O)O)NC(=O)[C@H](Cc2ccccc2)NC(=O)CNC(=O)[C@@H]1NC(=O)[C@@H](N)Cc1ccc(O)cc1
Ki [1]: […] | IC50 (Cavia porcellus; Cavia porcellus, Ileum): 1350 nM

CC1(C)SSC[C@@H](NC(=O)[C@@H](N)Cc2ccc(O)cc2)C(=O)NCC(=O)N[C@@H](Cc2ccccc2)C(=O)N[C@@H]1C(=O)O
Ki [1]: […] | IC50 (Cavia porcellus; Cavia porcellus, Ileum): 67 nM

CC1(C)SSC[C@@H](NC(=O)[C@@H](N)Cc2ccc(O)cc2)C(=O)NCC(=O)N[C@@H](Cc2ccccc2)C(=O)N[C@H]1C(=O)O
Ki [1]: […] | IC50 (Cavia porcellus; Cavia porcellus, Ileum): 40 nM

N[C@@H](Cc1ccc(O)cc1)C(=O)N[C@@H]1CSSC2(CCCCC2)[C@H](C(=O)O)NC(=O)[C@H](Cc2ccccc2)NC(=O)CNC1=O
IC50 (Mus musculus; Mus musculus, Vas deferens): 0.0564 nM

N[C@@H](Cc1ccc(O)cc1)C(=O)N[C@@H]1CSSC2(CCCCC2)[C@@H](C(=O)O)NC(=O)[C@H](Cc2ccccc2)NC(=O)CNC1=O
IC50 (Cavia porcellus; Cavia porcellus, Ileum): 13.3 nM | IC50 (Mus musculus; Mus musculus, Vas deferens): 0.0745 nM

N[C@@H](Cc1ccc(O)cc1)C(=O)N[C@H]1C(=O)NCC(=O)N[C@@H](Cc2ccccc2)C(=O)N[C@H](C(=O)O)CSSC12CCCCC2 (stereo in doubt; 5) [listing 1 of 2 here]
Ki [2]: 31.3 nM | Ki (Mu-type opioid receptor [3]): 1800 nM | IC50 (Cavia porcellus): 29900 nM | IC50 (Mus musculus): > 2040 nM | Ki [4]: 15 nM

N[C@@H](Cc1ccc(O)cc1)C(=O)N[C@H]1C(=O)NCC(=O)N[C@@H](Cc2ccccc2)C(=O)N[C@H](C(=O)O)CSSC12CCCCC2 (stereo in doubt; 5) [listing 2 of 2 here]
Ratio [5]: < 14.7

N[C@@H](Cc1ccc(O)cc1)C(=O)N[C@H]1C(=O)NCC(=O)N[C@@H](Cc2ccccc2)C(=O)N[C@H](C(=O)O)CSSC12CCCCC2 (stereo in doubt; 6) [listing 1 of 2 here]
Ki [6]: 683 nM | IC50 (Cavia porcellus): 70900 nM | Ki (Mu-type opioid receptor [7]): 4010 nM | IC50 (Mus musculus): > 4240 nM | Ki [8]: 387 nM

N[C@@H](Cc1ccc(O)cc1)C(=O)N[C@H]1C(=O)NCC(=O)N[C@@H](Cc2ccccc2)C(=O)N[C@H](C(=O)O)CSSC12CCCCC2 (stereo in doubt; 6) [listing 2 of 2 here]
Ratio [9]: < 16.7
